For one test, the target named is human cyclin D1-CDK4 (Homo sapiens, UniProt P11802). In words: FlashPlate kinase assay, cyclin D1-CDK4. The test is classed as biochemical. The following applies: Rb protein substrate, 1 μM ATP, 33P-ATP, 30 minutes room temperature; read-out: CDK4 IC50.
The target in the next test is human cyclin E-CDK2 (Homo sapiens, UniProt P24941). In words: FlashPlate kinase assay, cyclin E-CDK2. It counts as biochemical. The conditions noted are these: Rb protein substrate, 1 μM ATP, 33P-ATP, 30 minutes room temperature. As for the experimental part:
To determine inhibition of Cdk4, Cdk2 and Cdk1 activity, kinase assays were conducted using FlashPlate™ assays (NEN™-Life Science Products). FlashPlate assays were performed using recombinant human cyclin B-CDK1, human cyclin E-CDK2 or human cyclin D1-CDK4 complexes. GST-cyclinE (GST-cycE), CDK2, GST-cyclinB (GST-cycB), CDK1, GST-CDK4 and cyclin D1 (cycD1) cDNA clones in baculovirus vectors were provided by Dr. W. Harper at the Baylor College of Medicine, Houston, Tex. Proteins were co-expressed in High Five™ insect cells and the complex was purified on glutathione Sepharose resin (Pharmacia, Piscataway, N.J.) as previously described (Harper, J. W. et al. Cell 1993, 75, 805–816). A 6×-Histidine tagged truncated form of retinoblastoma (Rb) protein (amino acid 386–928) was used as the substrate for the cycD1-CDK4, cycB-CDK1 and the cycE-CDK2 assays (the expression plasmid was provided by Dr. Veronica Sullivan, Department of Molecular Virology, Roche Research Centre, Welwyn Garden City, United Kingdom). The Rb protein is a natural substrate for phosphorylation by CDK4, CDK2 and CDK1 (see Herwig and Strauss Eur. J. Biochem. Vol. 246 (1997) pp. 581–601 and the references cited therein).
The expression of the 62Kd protein was under the control of an IPTG inducible promoter in an M15 E. coli strain. Cells were lysed by sonication and purification was carried out by binding lysates at pH 8.0 to a Ni-chelated agarose column pretreated with 1 mM imidazole. The resin was then washed several times with incrementally decreasing pH buffers to pH 6.0, and eluted with 500 mM imidazole. Eluted protein was dialysed against 20 mM HEPES pH 7.5, 30% glycerol, 200 mM NaCl, and 1 mM DTT. Purified Rb fusion protein stocks were quantitated for protein concentration, aliquoted, and stored at −70° C.
For all three kinase assays reported herein, 96-well FlashPlates were coated with Rb protein at 10 μg/ml, using 100 μl per well. Plates were incubated at 4° C. overnight or at room temperature for 3 hours on a shaker. To control for nonspecific phosphorylation, one row of wells was coated with 100 μl/well coating buffer (20 mM HEPES, 0.2 M NaCl). Plates were then washed twice with wash buffer (0.01% Tween 20 in phosphate-buffered saline). Compounds to be tested (“test compounds”) were added to the wells at 5× final concentration. Reactions were initiated by immediate addition of 40 μl reaction mix (25 mM HEPES, 20 mM MgCl2, 0.002% Tween 20, 2 mM DTT, 1 μM ATP, 4 nM ^33P-ATP) and a sufficient amount of enzyme to give counts that were at least 10-fold above background. Plates were incubated at room temperature on a shaker for 30 minutes. Plates were washed four times with the wash buffer, sealed, and counted on the TopCount scintillation counter (Packard Instrument Co., Downers Grove, Ill.]. The percent inhibition of Rb phosphorylation, which is a measure of the inhibition of CDK activity, was determined according to the following formula:
[formula] where “test compound” refers to the average counts per minute of the test duplicates, “nonspecific” refers to the average counts per minute when no CyclinD/Cdk4, etc., was added, and “total” refers to the average counts per minute when no compound was added. The IC50 value is the concentration of test compound that reduces by 50% the protein-kinase induced incorporation of the radiolabel under the test conditions described.

The next test concerns the target human cyclin B-CDK1 (Homo sapiens, UniProt P06493). Put plainly: FlashPlate kinase assay, cyclin B-CDK1. It counts as biochemical. The following applies: Rb protein substrate, 1 μM ATP, 33P-ATP, 30 minutes room temperature.
Test [1] relates to HCT116, a colorectal carcinoma cell line. In words: Tetrazolium dye (MTT) proliferation assay. The test is classed as cell-based. The conditions noted are these: Homo sapiens, HCT-116; HCT116 cells, inhibition of cell proliferation. As to the method:
Proliferation was evaluated by the tetrazolium dye assay according to the procedure of Denizot and Lang (Denizot, F. and Lang, R. J Immunol Methods 1986, 89, 271–277). The cell line used was HCT116, a colorectal carcinoma cell line obtained from the American Type Cell Culture Collection (ATCC; Rockville, Md.). The cells were grown in McCoy's 5A medium supplemented with 10% FCS and L-glutamine.
Cells were plated at the appropriate seeding density to give logarithmic growth over the course of the assay in a 96-well tissue culture plate. Plates were incubated overnight at 37° C. in a humidified incubator with 5% CO2. The next day, test compounds were serially diluted to four times the final concentration in the appropriate medium containing 1.2% DMSO. One-fourth final volume of each dilution was added in duplicate to the plates containing cells. The same volume of 1.2% DMSO in medium was added to a row of “control wells” such that the final concentration of DMSO in each well was 0.3%. Wells to which no cells were added served as the “blank.” Wells to which no inhibitor was added served as “no inhibitor control.” The plates were) returned to the incubator, and at set time points (determined by their growth curves) plates were analyzed as described below.
3-(4,5-dimethylthiazole-2-yl)-2,5-diphenyl-2H-tetrazolium bromide (thiazolyl blue; MTT; Sigma) was added to each well to yield a final concentration of 1 mg/ml. Plates were returned to the incubator for 2.5–3 hours at 37° C. The MTT-containing medium was removed and the resulting formazan metabolite was solubilized in 100% ethanol with shaking for 15 minutes at room temperature. Absorbance readings were taken in a microtiter plate reader (Dynatech and Molecular Devices plate readers were used interchangeably) at a wavelength of 570 nm with a 650 nm reference. Percent inhibition (% INH) is calculated by subtracting the absorbance of the blank well from all wells, then subtracting the ratio of the average absorbance of each test duplicate (SAVE) by the average of the controls (CAVE) from 1.00. The final number is then multiplied by 100 (% INH=(1.00−SAVE/CAVE)×100). The concentration at which 50% inhibition of cell proliferation is obtained (the IC50) is determined from the linear regression of a plot of the logarithm of the concentration versus percent inhibition.

Sequence of human cyclin B-CDK1 (P06493 whole entry): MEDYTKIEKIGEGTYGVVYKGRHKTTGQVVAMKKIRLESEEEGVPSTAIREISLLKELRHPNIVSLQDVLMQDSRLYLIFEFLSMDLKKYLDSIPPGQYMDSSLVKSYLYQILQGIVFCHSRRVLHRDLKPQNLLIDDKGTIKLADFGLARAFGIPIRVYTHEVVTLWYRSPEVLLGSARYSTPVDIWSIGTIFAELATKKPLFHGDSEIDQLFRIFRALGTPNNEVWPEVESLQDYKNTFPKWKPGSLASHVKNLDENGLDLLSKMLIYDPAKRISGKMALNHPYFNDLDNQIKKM
Sequence of human cyclin B-CDK1 (P14635 whole entry partner): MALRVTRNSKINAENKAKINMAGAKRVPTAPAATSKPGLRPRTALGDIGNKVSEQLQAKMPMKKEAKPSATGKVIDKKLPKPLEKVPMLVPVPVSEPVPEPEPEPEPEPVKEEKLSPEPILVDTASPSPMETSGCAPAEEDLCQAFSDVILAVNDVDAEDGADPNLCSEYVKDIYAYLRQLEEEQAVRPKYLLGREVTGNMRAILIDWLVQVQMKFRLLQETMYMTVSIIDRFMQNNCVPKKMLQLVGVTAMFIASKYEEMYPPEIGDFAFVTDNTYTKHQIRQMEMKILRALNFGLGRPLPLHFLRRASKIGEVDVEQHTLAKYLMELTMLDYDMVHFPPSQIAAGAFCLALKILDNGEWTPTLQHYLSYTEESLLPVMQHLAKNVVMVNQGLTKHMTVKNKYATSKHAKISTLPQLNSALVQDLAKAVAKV
Sequence of human cyclin D1-CDK4 (P11802 whole entry): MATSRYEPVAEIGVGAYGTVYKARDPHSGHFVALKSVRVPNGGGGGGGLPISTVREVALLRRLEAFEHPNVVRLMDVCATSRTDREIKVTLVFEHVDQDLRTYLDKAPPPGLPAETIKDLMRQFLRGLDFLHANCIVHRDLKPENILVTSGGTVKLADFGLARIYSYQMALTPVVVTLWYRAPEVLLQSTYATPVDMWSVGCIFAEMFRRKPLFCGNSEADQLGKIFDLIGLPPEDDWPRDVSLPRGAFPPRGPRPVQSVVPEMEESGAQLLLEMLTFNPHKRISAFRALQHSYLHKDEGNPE
Sequence of human cyclin D1-CDK4 (P24385 whole entry partner): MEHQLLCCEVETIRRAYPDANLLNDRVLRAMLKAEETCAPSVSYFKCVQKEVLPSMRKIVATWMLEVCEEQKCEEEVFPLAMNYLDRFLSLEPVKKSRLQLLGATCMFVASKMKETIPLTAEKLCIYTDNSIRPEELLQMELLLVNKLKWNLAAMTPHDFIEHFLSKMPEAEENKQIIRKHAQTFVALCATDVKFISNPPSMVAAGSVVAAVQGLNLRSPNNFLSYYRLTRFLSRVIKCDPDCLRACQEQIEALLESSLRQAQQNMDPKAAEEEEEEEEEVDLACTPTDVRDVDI

In general, IC50 refers to the concentration needed to halve the response being measured. `CCCc1cc(C(=O)c2sc(Nc3ccc(N4CCC(N5CCCC5)CC4)cc3)nc2N)ccc1O` [Example 123, {4-Amino-2-[4-(4-pyrrolidin-1-yl-piperidin-1-yl)-phenylamino]-thiazol-5-yl}-(4-hydroxy-3-propyl-phenyl)-methanone]: the IC50 on human cyclin D1-CDK4 stood at 14 nM; against human cyclin E-CDK2 it was 200 nM; on human cyclin B-CDK1, 345 nM; in test [1], 1050 nM.
For `Nc1nc(Nc2ccc(N3CCC(N4CCCC(O)C4)CC3)cc2)sc1C(=O)c1ccc(O)cc1` (stereo not shown) [Example 40, {4-Amino-2-[4-(3-hydroxy-[1,4′]bipiperidinyl-1′-yl)-phenylamino]-thiazol-5-yl}-(4-hydroxy-phenyl)-methanone] the same measures were 52 nM, 5110 nM, 640 nM and 9480 nM.
The matching figures for `Nc1nc(Nc2ccc(N3CCC(N4CCCCC4)CC3)cc2)sc1C(=O)c1cccc(F)c1` [Example 30, [4-Amino-2-(4-[1,4′]bipiperidinyl-1′-yl-phenylamino)-thiazol-5-yl]-(3-fluoro-phenyl)-methanone]: 14 nM, 545 nM, 176 nM and 840 nM.
The matching figures for `COc1cccc(C(=O)c2sc(Nc3ccc(N4CCC(N5CCCC5)CC4)cc3)nc2N)c1` [Example 27]: 17 nM, 3490 nM, 1060 nM and 1850 nM.
With `CN(C)C1CCN(c2ccc(Nc3nc(N)c(C(=O)c4cccc(O)c4)s3)cc2)CC1` [Example 50, {4-Amino-2-[4-(4-dimethylamino-piperidin-1-yl)-phenylamino]-thiazol-5-yl}-(3-hydroxy-phenyl)-methanone], the IC50 at human cyclin D1-CDK4 was found to be 7 nM; against human cyclin E-CDK2, 2790 nM; against human cyclin B-CDK1, 810 nM; in test [1] it was 3120 nM.
The matching figures for `COc1ccc(C(=O)c2sc(Nc3ccc(N4CCC(N5CCCC(O)C5)CC4)cc3)nc2N)cc1F` (stereo not shown) [Example 36, {4-Amino-2-[4-(3-hydroxy-[1,4′]bipiperidinyl-1′-yl)-phenylamino]-thiazol-5-yl}-(3-fluoro-4-methoxy-phenyl)-methanone]: 3630 nM, 3000 nM, 1730 nM and 9 nM.
For `Nc1nc(Nc2ccc(N3CCC(N4CCCCC4)CC3)cc2)sc1C(=O)c1ccc2c(c1)OCO2` [Example 32, [4-Amino-2-(4-[1,4′]bipiperidinyl-1′-yl-phenylamino)-thiazol-5-yl]-benzo[1,3]dioxol-5-yl-methanone], the IC50 at human cyclin D1-CDK4 was found to be 29 nM; against human cyclin E-CDK2 it was 5740 nM; against human cyclin B-CDK1, 1910 nM; in test [1] it was 6640 nM.
The matching figures for `COc1ccc(C(=O)c2sc(Nc3ccc(N4CCC(N(C)C)CC4)cc3)nc2N)cc1[N+](=O)[O-]` [Example 113, {4-Amino-2-[4-(4-dimethylamino-piperidin-1-yl)-phenylamino]-thiazol-5-yl}-(4-methoxy-3-nitro-phenyl)-methanone]: 45 nM, 7270 nM, 940 nM and 1740 nM.
The matching figures for `Nc1nc(Nc2ccc(N3CCC(N4CCCC4)CC3)cc2)sc1C(=O)c1cccc(C2CC2)c1` [Example 119, {4-Amino-2-[4-(4-pyrrolidin-1-yl-piperidin-1-yl)-phenylamino]-thiazol-5-yl}-(3-cyclopropyl-phenyl)-methanone]: 11 nM, 3240 nM, 1530 nM and 3170 nM.
The matching figures for `COc1ccc(C(=O)c2sc(Nc3ccc(N4CCC(N5CCCC5)CC4)cc3)nc2N)cc1[N+](=O)[O-]` [Example 107, {4-Amino-2-[4-(4-pyrrolidin-1-yl-piperidin-1-yl)-phenylamino]-thiazol-5-yl}-(4-methoxy-3-nitro-phenyl)-methanone]: 38 nM, 2390 nM, 1000 nM and 3680 nM.
In the case of `CN(C)C1CCN(c2ccc(Nc3nc(N)c(C(=O)c4cccc([N+](=O)[O-])c4)s3)cc2)CC1` [Example 92, {4-Amino-2-[4-(4-dimethylamino-piperidin-1-yl)-phenylamino]-thiazol-5-yl}-(3-nitro-phenyl)-methanone], the concentration for half-maximal inhibition (IC50) at human cyclin D1-CDK4 is 15 nM; at human cyclin E-CDK2, 1600 nM; against human cyclin B-CDK1, 870 nM; in test [1], 2900 nM.
As to `CCNC1CCN(c2ccc(Nc3nc(N)c(C(=O)c4cccc(F)c4)s3)cc2)CC1` [Example 137, {4-Amino-2-[4-(4-ethylamino-piperidin-1-yl)-phenylamino]-thiazol-5-yl}-(3-fluoro-phenyl)-menthanone], the IC50 at human cyclin D1-CDK4 is 32 nM; against human cyclin B-CDK1, 385 nM; in test [1], 1400 nM.
The matching figures for `Nc1nc(Nc2ccc(N3CCC(N4CCCC(O)C4)CC3)cc2)sc1C(=O)c1ccc2c(c1)OCCO2` (stereo not shown) [Example 38, {4-Amino-2-[4-(3-hydroxy-[1,4′]bipiperidinyl-1′-yl)-phenylamino]-thiazol-5-yl}-(2,3-dihydro-benzo[1,4]dioxin-6-yl)-methanone]: 5260 nM, 4050 nM and 15 nM.
On to `Cc1cccc(C(=O)c2sc(Nc3ccc(N4CCC(N5CCCCC5)CC4)cc3)nc2N)c1` [Example 111, [4-Amino-2-(4-[1,4′]bipiperidinyl-1′-yl-phenylamino)-thiazol-5-yl]-tolyl-methanone], for which the IC50 on human cyclin D1-CDK4 came to 25 nM; in test [1], 1610 nM.
In the case of `Cc1cccc(C(=O)c2sc(Nc3ccc(N4CCC(N(C)C)CC4)cc3)nc2N)c1` [Example 110, {4-Amino-2-[4-(4-dimethylamino-piperidin-1-yl)-phenylamino]-thiazol-5-yl}-tolyl-methanone], the figures for the IC50 (at human cyclin D1-CDK4; at human cyclin B-CDK1; in test [1]) were 25 nM, 1990 nM and 2700 nM, respectively.

Values taken from patent US7211576B2, “Diaminothiazoles” (Hoffmann-La Roche Inc., priority 2004, dated 2007).
